Among the data in patent publication US12006332B2, “Aminopyrimidine derivatives as phosphatidylinositol phosphate kinase inhibitors” (HiberCell, Inc., priority 2019, dated 2024) are IC50 and EC50 values, retold here.

Assay [1] concerns the target T1, PIP4K2A (Homo sapiens, UniProt P48426).
T1 construct: made in house; host or cells: E. coli
T1 sequence (P48426 1-406): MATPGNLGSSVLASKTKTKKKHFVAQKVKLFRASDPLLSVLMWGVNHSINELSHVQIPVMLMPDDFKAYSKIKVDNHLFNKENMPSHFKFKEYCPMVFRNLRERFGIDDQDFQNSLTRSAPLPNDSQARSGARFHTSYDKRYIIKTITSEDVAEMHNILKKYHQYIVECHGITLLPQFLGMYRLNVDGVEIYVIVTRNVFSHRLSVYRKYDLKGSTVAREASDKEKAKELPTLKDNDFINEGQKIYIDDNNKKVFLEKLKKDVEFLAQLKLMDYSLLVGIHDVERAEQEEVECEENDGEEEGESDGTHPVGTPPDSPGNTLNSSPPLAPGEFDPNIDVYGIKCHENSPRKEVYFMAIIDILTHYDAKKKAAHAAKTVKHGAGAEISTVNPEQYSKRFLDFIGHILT
The assay is described as follows: Kinase Assay-PIP4K2 A (ADP-Glo). The format is biochemical. The protocol: Dilution series of the compounds were prepared in DMSO at 100 times the final assay concentration (n1=n0/3 in 10 points). The compounds were further diluted to three times the assay concentration in assay buffer (20 mM MOPS pH 7.2, 25 mM magnesium chloride, 0.005% Tween 20). 6 μL of the diluted compounds were added to a 384 well assay plate followed by 9 μL of a mix consisting of 4 nM PIP4K2A (full length protein, SignalChem) and 100 μM PI(5)P diC8 (Tebu-Bio). Enzyme and compounds were pre-incubated at room temperature for 15 minutes.
Then 3 μL of a solution containing 60 μM ATP (Promega) in assay buffer was added to the wells containing compound and enzyme and mixing was performed by pipetting several times. The reaction was incubated at room temperature for 1 h. Then 18 μL of ADP-Glo™ Reagent (Promega) was added to stop the kinase reaction and deplete the unconsumed ATP, mixing was performed by pipetting several times. The plate was incubated at room temperature for 40 minutes before addition of 36 μL of Kinase Detection Reagent (Promega) to convert ADP to ATP and introduce luciferase and luciferin to detect ATP. The reaction was incubated at room temperature for 40 minutes before the luminescence was measured in a in a Victor 3V 1420 multilabel counter (Perkin Elmer).
Percent inhibition of the compounds as compared to dimethyl sulfoxide treated control samples was calculated. Compound concentration versus percent inhibition were fitted to generate IC50 values. […]
Background: ADP-Glo turns the ADP formed in a reaction into a luminescent signal.

The target of assay [2] is T2, PIP4K2 B (Homo sapiens, UniProt P78356).
T2 construct: made in house; host or cells: E. coli
T2 sequence (P78356 1-416): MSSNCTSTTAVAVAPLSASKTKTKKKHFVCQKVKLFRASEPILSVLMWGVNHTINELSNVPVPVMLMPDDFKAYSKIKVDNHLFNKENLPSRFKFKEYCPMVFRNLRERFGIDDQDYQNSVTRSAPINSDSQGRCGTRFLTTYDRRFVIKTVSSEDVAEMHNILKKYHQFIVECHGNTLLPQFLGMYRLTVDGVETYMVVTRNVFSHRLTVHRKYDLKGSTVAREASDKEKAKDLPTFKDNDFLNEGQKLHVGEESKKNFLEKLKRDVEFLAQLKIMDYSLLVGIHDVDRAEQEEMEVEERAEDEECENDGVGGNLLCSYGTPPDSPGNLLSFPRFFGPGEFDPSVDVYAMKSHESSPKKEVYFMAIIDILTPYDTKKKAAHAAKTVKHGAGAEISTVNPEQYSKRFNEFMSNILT
Nature of the assay: Kinase Assay-PIP4K2 B (Transcreener FI). The format is biochemical. The text has this:
GST tagged PIP4KtypeIIA and B enzymes were overexpressed in E. Coli and purified to >80% homogeneity. Phosphatidyl inositol-5-phosphate (PI5P, Cat. #850152, Avanti Polar Lipids Inc.) was used as the lipid substrate and phosphatidyl ethanolamine (DOPE 18:1, Cat. #850725, Avanti Polar Lipids Inc.) was used as the carrier lipid for assays. Ultrapure ATP and GTP was purchased from Bellbrooke Labs. ADP Glo reagents were obtained from Promega. Transcreener FI reagent was obtained from Bellbrooke labs.
• 1. HEPES buffer mix: 200 mM HEPES pH 7.4, 50 mM MgCl2, 0.05% v/v triton X 100 • 2. HNE buffer: 20 mM HEPES, pH 7.4, 100 mM NaCl, 0.5 mM EGTA • 3. H:E buffer: 30 mM HEPES, pH 7.4, 1 mM EGTA
GST-tagged PIP4KtypeIIB (3.4 μl, 2.77 mg/mL) was diluted to 5 mL using HNE buffer to yield 5× enzyme stock (25 nM)
Lipid Preparation: In a 10 mL pyrex glass vial, […] were suspended in 2.5 mL of HEPES buffer mix and 2.5 mL of H:E buffer. The contents were mixed and sonicated for 3 min to yield a translucent lipid stock.
Compound Preparation: Compounds were stored as 5 mM stocks in neat DMSO as room temperature in glass vials. 5 mM stocks were diluted to 2 mM and then serially diluted (3×) in neat DMSO in 96 well polypropylene plates. From the serially diluted stocks, 3 μL was delivered into 250 μL of 25% DMSO (in water) to generate 5× compound stocks. Typically, the highest compound conc. was 24 μM.
The assay volume was kept at 25 μL. To each well of the reaction plate, 10 μL of lipid stock (1:1 ratio PI5P:DOPE) was delivered. This was followed by the addition of 5 μL of compound in 25% DMSO. Then, to each well, 5 μL of 25 nM (5×) typeIIB enzyme was delivered. The contents were mixed well and incubated for 1 h at 27° C. After 1 h, reaction was initiated by adding 5 μL of 500 μM GTP and the contents were mixed well with a multi-channel pipetteman. The final concentration of the reagents are as follows: 50 mM HEPES, pH 7.3, 10 mM MgCl2, 20 mM NaCl, 0.01% v/v triton-X100, 5% DMSO, 100 μM GTP, 80 μM (2 μg) PI5P, 2 μg DOPE, and 5 nM PIP4KIIB Typically, the highest conc. of compounds was 4.8 μM and the lowest conc. was 0.
After 2 h, the reaction was quenched by adding 25 μL of transcreener FI reagent. The contents were incubated at rt for 1 h and the Fluorescence (Ex: 584 Em: 623) was read using Molecular Devices Paradigm plate reader. […] The blanks were averaged and subtracted from all other wells. Using a calibration curve, RFU was converted to μM GDP (product). IC50 was calculated by plotting the residual activity (expressed as % No inhibitor control) vs. log [Inh. conc.].

In assay [3] the test system is MOLM-16. The assay is described as follows: MOLM-16 EC50 assay. The format is cell-based. The note with it: MOLM16.

Usually IC50 stands for the midpoint of a concentration-inhibition curve. High values mean weaker potency in that assay, low ones greater potency in that assay. As usually defined, the EC50 is the concentration giving half of the maximal effect. Read a high EC50 as a need for much substance.

Where only a bound is given, the exact number is not on record here.

For the compound `CN(c1nc(Nc2cnc3c(c2)N2C(=O)CC[C@H]2CO3)ncc1-c1ccc(N2CCCC2=O)cc1)[C@@H]1CCOC1` [Compound 7, (6S)-12-[(4-{methyl[(3R)-oxolan-3-yl]amino}-5-[4-(2-oxopyrrolidin-1-yl)phenyl]pyrimidin-2-yl)amino]-8-oxa-2,10-diazatricyclo[7.4.0.0^2,6]trideca-1(13),9,11-trien-3-one], the IC50 in assay [1] and in assay [2] was 1 to 10 nM in each case. This compound returned a 50% effective concentration (EC50) in assay [3] of more than 1000 nM.
On to `C=C(C)c1cc(Nc2cnc3c(c2)N2C(=O)CC[C@H]2CO3)ncc1-c1ccc(-c2nncn2C)cc1` [Compound 8, (6S)-12-({5-[4-(4-methyl-4H-1,2,4-triazol-3-yl)phenyl]-4-(prop-1-en-2-yl)pyridin-2-yl}amino)-8-oxa-2,10-diazatricyclo[7.4.0.0^2,6]trideca-1(13),9,11-trien-3-one], for which the IC50 in assay [1] and in assay [2] was 1 to 10 nM throughout. The EC50 in assay [3] was more than 1000 nM.
Take `CC1(C#N)CN(c2nc(Nc3cnc4c(c3)N3C(=O)CC[C@H]3CO4)ncc2-c2ccc(N3CCCC3=O)cc2)C1` [Compound 10, 3-methyl-1-(2-{[(6S)-3-oxo-8-oxa-2,10-diazatricyclo[7.4.0.0^2,6]trideca-1(13),9,11-trien-12-yl]amino}-5-[4-(2-oxopyrrolidin-1-yl)phenyl]pyrimidin-4-yl)azetidine-3-carbonitrile]: the IC50 in assay [1] and in assay [2] was 1 to 10 nM each time. The concentration giving a half-maximal response (EC50) in assay [3] fell in the range of 100 to 1000 nM.
As to `CN(c1nc(Nc2cnc3c(c2)OCCO3)ncc1-c1ccc(N2CCCC2=O)cc1)[C@H]1C[C@H](O)C1` [Compound 12, 1-{4-[2-({2H,3H-[1,4]dioxino[2,3-b]pyridin-7-yl}amino)-4-{methyl[(1r,3r)-3-hydroxycyclobutyl]amino}pyrimidin-5-yl]phenyl}pyrrolidin-2-one], the IC50 in assay [1] and in assay [2] was 1 to 10 nM each time. The same compound showed a 50% effective concentration (EC50) in assay [3] of 100 to 1000 nM.
Take `Cc1cnnn1-c1ccc(-c2cnc(Nc3cnc4c(c3)N(C(=O)OCCN(C)C)CCO4)nc2)cc1` [Compound 13, 2-(dimethylamino)ethyl 7-({5-[4-(5-methyl-1H-1,2,3-triazol-1-yl)phenyl]pyrimidin-2-yl}amino)-1H,2H,3H-pyrido[2,3-b][1,4]oxazine-1-carboxylate]: the IC50 in assay [1] and in assay [2] was 1 to 10 nM in each case. In addition, the EC50 in assay [3] fell in the range of 100 to 1000 nM.
As to `O=C1CCCN1c1ccc(-c2cnc(Nc3cnc4c(c3)N3C(=O)CC[C@H]3CO4)nc2C(F)(F)F)cc1` [Compound 14, (6S)-12-({5-[4-(2-oxopyrrolidin-1-yl)phenyl]-4-(trifluoromethyl)pyrimidin-2-yl}amino)-8-oxa-2,10-diazatricyclo[7.4.0.0^2,6]trideca-1(9),10,12-trien-3-one], the half-inhibitory concentration (IC50) in assay [1] and in assay [2] was 1 to 10 nM in each case. The concentration giving a half-maximal response (EC50) in assay [3] was more than 1000 nM.
For `COc1nc(Nc2cnc3c(c2)N(C(=O)OCCN(C)C)CCO3)ncc1-c1ccc(C(=O)N(C)C)cc1` [Compound 15, 2-(dimethylamino)ethyl 7-({5-[4-(dimethylcarbamoyl)phenyl]-4-methoxypyrimidin-2-yl}amino)-1H,2H,3H-pyrido[2,3-b][1,4]oxazine-1-carboxylate], the IC50 in assay [1] and in assay [2] was 1 to 10 nM each time. In assay [3], this compound returned an EC50 of 100 to 1000 nM.
As for `COc1nc(Nc2cncc(N3CCC(N(C)C)CC3)c2)ncc1-c1ccc(N2CCCC2=O)cc1` [Compound 16, 1-{4-[2-({5-[4-(dimethylamino)piperidin-1-yl]pyridin-3-yl}amino)-4-methoxypyrimidin-5-yl]phenyl}pyrrolidin-2-one], the IC50 in assay [1] and in assay [2] was 10 to 100 nM in each case. In assay [3], this compound gave an EC50 of 10 to 100 nM.
In the case of `CN(C)C(=O)c1ccc(-c2cnc(Nc3cnc4c(c3)OCCO4)nc2N(C)[C@H]2C[C@@H](O)C2)cc1` [Compound 18, 4-[2-({2H,3H-[1,4]dioxino[2,3-b]pyridin-7-yl}amino)-4-{methyl[(1s,3s)-3-hydroxycyclobutyl]amino}pyrimidin-5-yl]-N,N-dimethylbenzamide], the IC50 in assay [1] lay in the range of 10 to 100 nM; in assay [2], 100 to 1000 nM. In assay [3], this compound registered an EC50 of more than 1000 nM.
`COc1nc(Nc2cnc3c(c2)N(C(=O)CN(C)C)CCO3)ncc1-c1ccc(N2CCCC2=O)cc1` [Compound 19, 1-{4-[2-({1-[2-(dimethylamino)acetyl]-1H,2H,3H-pyrido[2,3-b][1,4]oxazin-7-yl}amino)-4-methoxypyrimidin-5-yl]phenyl}pyrrolidin-2-one]: the half-maximal inhibitory concentration (IC50) in assay [1] and in assay [2] was 10 to 100 nM in each case. The same compound displayed a 50% effective concentration (EC50) in assay [3] of 10 to 100 nM.
With `Cc1cnnn1-c1ccc(-c2cnc(Nc3cnc4c(c3)N(C(=O)CN(C)C)CCO4)nc2)cc1` [Compound 20, 2-(dimethylamino)-1-[7-({5-[4-(5-methyl-1H-1,2,3-triazol-1-yl)phenyl]pyrimidin-2-yl}amino)-1H,2H,3H-pyrido[2,3-b][1,4]oxazin-1-yl]ethan-1-one], the concentration for half-maximal inhibition (IC50) in assay [1] and in assay [2] was 10 to 100 nM each time. Further, the EC50 in assay [3] fell in the range of 100 to 1000 nM.
Take `O=C1CCCN1c1ccc(-c2cnc(Nc3cnc4c(c3)N3C(=O)CC[C@H]3CO4)nc2CC2(O)COC2)cc1F` [Compound 21, (6S)-12-({5-[3-fluoro-4-(2-oxopyrrolidin-1-yl)phenyl]-4-[(3-hydroxyoxetan-3-yl)methyl]pyrimidin-2-yl}amino)-8-oxa-2,10-diazatricyclo[7.4.0.0^2,6]trideca-1(9),10,12-trien-3-one]: the IC50 in assay [1] and in assay [2] was 10 to 100 nM each time. In assay [3], the concentration for a half-maximal effect (EC50) was more than 1000 nM.
